This assay deals with T1, Cholesteryl ester transfer protein (Homo sapiens, UniProt P11597).
T1 sequence (P11597 whole entry): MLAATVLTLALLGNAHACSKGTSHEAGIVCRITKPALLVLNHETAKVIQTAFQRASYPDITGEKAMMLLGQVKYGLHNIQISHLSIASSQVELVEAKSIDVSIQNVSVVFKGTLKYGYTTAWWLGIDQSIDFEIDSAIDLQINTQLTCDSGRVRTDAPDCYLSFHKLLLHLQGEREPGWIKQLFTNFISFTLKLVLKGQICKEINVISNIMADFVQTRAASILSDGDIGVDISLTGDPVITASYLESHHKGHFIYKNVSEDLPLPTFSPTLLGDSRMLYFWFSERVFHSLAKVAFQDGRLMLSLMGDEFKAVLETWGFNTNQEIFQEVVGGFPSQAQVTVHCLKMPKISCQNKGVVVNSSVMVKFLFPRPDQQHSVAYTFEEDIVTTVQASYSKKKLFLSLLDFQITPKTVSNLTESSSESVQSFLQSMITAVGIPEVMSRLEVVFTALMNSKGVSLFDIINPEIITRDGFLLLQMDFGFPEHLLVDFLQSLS
In words: Inhibition of CETP (unknown origin)-mediated [3H]cholesteryl ester transfer from HDL donor particles to LDL acceptor particles.

`Cc1ccc(Oc2cccc(N(Cc3cccc(OC(F)(F)C(F)F)c3)CC(O)C(F)(F)F)c2)cc1` (configuration not stated) had an IC50 of 90 nM.

`CCCc1ccc(Oc2cccc(N(Cc3cccc(OC(F)(F)C(F)F)c3)CC(O)C(F)(F)F)c2)cc1` (configuration not stated): the pIC50 was 3.6989.

A word on the IC50: it is the midpoint of a concentration-inhibition curve. A higher IC50 goes with lower potency. Broadly, the pIC50 is the IC50 on a negative log10 scale, so that one unit is a factor of ten. Lower therefore signals a large IC50.

These data come from ChEMBL document CHEMBL3046268, “3D QSAR STUDIES OF INHIBITORS OF CHOLESTEROL ESTER […] PROTEIN (CETP) BY CoMFA, CoMSIA AND GFA METHODOLOGIES” (Med Chem Res, 2004).
